Measurements published in patent US6599499B1, “Uses of diterpenoid triepoxides as an anti-proliferative agent” (priority 1999, dated 2003).

Assays:
p53 = p53 protein level by immunoblotting (Example 2); type: cell-based, human; conditions: for increase in p53 protein: MCF-7 cells
Protocol: (§1) Immunoblotting. At 8 hours after triptolide and/or doxorubicin treatment cells were harvested at the times indicated and lysed using HNET buffer (50 mM HEPES pH 7.5, 100 mM NaCl, 1 mM EGTA, and 1% Triton X-100) supplemented with 1 mM DTT, 1 mM PMSF and protease inhibitors cocktail (Boehringer Mannheim, Germany). 35 μg of protein was loaded on 10% SDS-PAGE followed by transferring to PVDF membrane. Immunoblotting was performed as previously described using a p53 mouse monoclonal antibody from Oncogene Research Products (Lee et al. (1999) J Biol Chem 274:13451-5).

p53 translation = p53 translation by 35S methionine metabolic labeling of HT1080 cells; type: cell-based, human; conditions: HT1080, triptolide 20 ng/ml pretreatment 6 h
Protocol: Metabolic Labeling of HT1080 Cells. Cells were grown to 80% confluence followed by pretreatment with triptolide (20 ng/ml) for 6 h in the appropriate medium. Cells were washed twice with short term labeling medium (RPMI with 5% dialyzed fetal calf serum supplemented with L-glutamine, penicillin, and streptomycin). To deplete intracellular pools of methionine, short term labeling medium was added for 15 min at 37° C. and then replaced by short term labeling medium containing 0.1 mCi/ml [35S]methionine (Amersham Pharmacia Biotech). Cells were labeled for 30 min at 37° C. and washed with ice-cold PBS before harvesting for immunoprecipitation. The cells were lysed using RIPA buffer supplemented with protease inhibitors and immunoprecipitated using an agarose-conjugated p53 mAb (Ab-6, Oncogene Research Products) followed by 10% SDS-PAGE. The intensity of labeled p53 protein was measured by NIH Image 1.62.

Mdm2 = Mdm2 mRNA (RT-PCR) and protein (immunoblot) in MCF-7 cells; type: cell-based, human
Protocol: RT-PCR. RNA was prepared from MCF-7 cells using Rneasy Mini Kit from Qiagen Inc. (Valencia, Calif.). cDNAs were prepared using M-MLV reverse transcriptase (Gibco) with 2 μg of total RNA. 1/20 of total cDNA was used in limited (25 cycles) PCR reactions using Taq polymerase (Gibco). The following primer pairs were used: p53 [SEQ ID NO:1] 5′-[…]-3′ and 5′-[SEQ ID NO:2] TCTTCUTXGGCTGGGGAGAG-3′, mdm2, [SEQ ID NO:3] 5′-[…]-3′ and [SEQ ID NO:4] 5′-[…]-3′, p21, [SEQ ID NO:5] 5′-[…]-3′ and [SEQ ID NO:6] 5′-[…]-3′, and glyceraldehyde-3-phosphate dehydrogenase (GAPDH)- [SEQ ID NO:7] 5′-[…]-3′ and [SEQ ID NO:8] 5′-[…]-3′.
as §1
In the experiments shown in FIG. 5, RT-PCR was performed using 2 μg of total RNAs extracted from MCF-7 cells. […] GADPH was used as a loading control. The plasmid pBP100-GL2 which contains a p53-binding site in the mdm2 promoter was transiently transfected into MCF-7 cells, and cellular lysates were used for the luciferase assay.

H23 human tumor cells = system: H23 human tumor cells
Protocol: Cell death reagents and assays. Cell viability was measured by an MTT assay as recently described (Lee et al. (1999) J. Biol. Chem. 274:13451-13455. z-VAD-fluoromethylketone (z-VAD.fmk) was obtained from Alexis Biochemicals, San Diego, Calif. The effect of z-VAD.fmk on cell viability was analyzed by annexin and propidium iodide staining followed by FACS analysis according to the manufacturer's protocol (Clontech Laboratories, Palo Alto, Calif.). The analysis of apoptosis in histologic sections was done by terminal deoxynucleotidyl transferase (TdT)-mediated d-UTP nick end labeling (TUNEL) of slides from paraffin sections of day 3 tumors harvested from the mice 24 h after the second of two daily treatments with PG490-88 or saline. TUNEL staining was done according to the manufacturer's protocol (Boehringer Mannheim, Indianapolis, Ind.) and then the histology slides were counterstained with methyl green. DNA was isolated from cells for analysis of internucleosomal DNA laddering followed by agarose gel electrophoresis and ethidium bromide staining.
Nude mouse xenograft model. Female NCr nude mice were purchased from Taconic, Germantown, N.Y., and were generally 20-24 grams when used. Mice were kept in autoclaved filter-top microisolator cages with autoclaved water and sterile food ad lib. The cages were maintained in an isolator unit providing filtered air (Lab Products, Inc., Maywood, N.J.). Tumor cells were grown and harvested as described above. NCr nude mice were injected intradermally with 5×10^6 tumor cells. In some experiments, treatment was initiated on the day of tumor cell implantation. […] Mice were treated IP daily for 5 days per week.
H23 tumor cells were implanted intradermally in nude mice. When the tumors reached approximately 100 mm^3, daily IP treatment with PG490-88 was initiated. […] The data in FIG. 3 represents the measurement of H23 tumor volume on day 14 after the initiation of treatment. Nude mice bearing xenografts of H23 human tumor cells were treated daily as shown. The data represent the means and the standard errors of the means of the tumor volumes as percent of the day 0 tumor volumes for each animal measured day 3, 6, 10 and 14 days after the initiation of treatment. There were 5 mice per group.

HT1080 tumor cells = experiment: Nude mouse xenograft, established HT1080 tumors; type: in vivo, nude mice; conditions: PG490-88 0.75 mg/kg IP days 0-5 and 7-11, CPT-11 11 mg/kg IV days 1, 5, 9
Protocol: Mice. […] Nude mouse xenograft model. HT1080 tumor cells were grown in tissue culture flasks and harvested using EDTA and trypsin. Cells were centrifuged and the concentration of viable cells was appropriately adjusted. […] Tumor size was monitored after tumor cell implantation by measuring the width, length and thickness of the tumors and using a formula to calculate the volume. […] Control mice were left untreated. […] Combination therapy mice received both PG490-88 and CPT-11 treatments.

[1] = Observable toxicity in treated mice (body weight, activity, respiration); type: in vivo
Protocol: PG490-88 (0.75 mg/kg) as measured by a change in body weight, altered activity or labored respiration.

NF-κB = NF-κB transcriptional activity in HT1080 cells; type: cell-based, human
Dx5 cells = conditions: cited from earlier work

In the case of `CC(C)[C@]12O[C@H]1[C@@H]1O[C@]13[C@]1(O[C@H]1C[C@H]1C4=C(CC[C@@]13C)C(=O)OC4)[C@@H]2O` [PG490, triptolide], the DNA strand breaks (DNA strand breaks) is reported as “does not induce DNA strand breaks”, the “increase in p53 steady state protein levels” value (p53; MCF-7 and A549 cells, dose- and time-dependent) is reported as 2-4 fold and the “increase in p53 protein” value (p53) is reported as “greater than 4 fold”. The “increase in p53 translation” value (p53 translation) was 4.9 fold, the “change in levels of the Mdm2 protein” value (Mdm2; MCF-7, triptolide 5 ng/ml, 8 or 24 hours) was “no significant change” and the “increase in Mdm2 protein” value (Mdm2; MCF-7, triptolide 20 ng/ml, 8 h) was “approximately 1.5 fold”. For the same molecule, the Mdm2 protein (Mdm2; MCF-7, triptolide 20 ng/ml, 24 h) was “almost a complete loss” and the “mdm2 mRNA” value (Mdm2; cells treated with triptolide) was “time-dependent decrease”.
In the case of `CC(C)[C@]12O[C@H]1[C@@H]1O[C@]13[C@]1(O[C@H]1C[C@H]1C4=C(CC[C@@]13C)C(=O)OC4)[C@@H]2OC(=O)CCC(=O)[O-].[Na+]` [PG490-88, 14-succinyl triptolide sodium salt], the “decrease of mean tumor size from the initial value at day 0” value (H23 human tumor cells; PG490-88 0.75 mg/kg/day, day 14) is reported as 61%, the “decrease of tumor size relative to the day 14 vehicle control” value (H23 human tumor cells; PG490-88 alone 0.75 mg/kg/day, combination PG490-88 0.25 mg/kg/day plus taxol 10 mg/kg/day) is reported as 97% and the “inhibition of tumor growth” value (H23 human tumor cells; daily IP PG490-88) is reported as “inhibited tumor growth in a dose-dependent manner”. For the same molecule, the “TUNEL staining of tumor sections” value (H23 human tumor cells; day 3 tumors, compared to saline-treated animals) was “many TUNEL-positive cells”, the “tumor volume as % of the vehicle control” value (H23 human tumor cells; day 14, PG490-88 0.25 mg/kg/day, taxol 10 mg/kg/day, IP) was 21% and the “TV Mean Day 4” value (HT1080 tumor cells) was 167. The “TV Mean Day 7” value (HT1080 tumor cells) was 208, the “TV Mean Day 10” value (HT1080 tumor cells) was 247 and the “TV Mean Day 14” value (HT1080 tumor cells) was 532. For the same molecule, the “TV Mean Day 0” value (HT1080 tumor cells; baseline) was 107, the “observable toxicity (change in body weight, altered activity or labored respiration)” value ([1]; PG490-88 0.75 mg/kg) was “no observable toxicity” and the tolerability ([1]; triptolide dosage on molar comparison to PG490-88 70 μg/mouse/week) was “well tolerated”.
For `COc1cccc2c1C(=O)c1c(O)c3c(c(O)c1C2=O)C[C@@](O)(C(=O)CO)C[C@@H]3O[C@H]1C[C@H](N)[C@H](O)[C@H](C)O1` [doxorubicin, reference compound], the NF-κB transcriptional activity (NF-κB) is listed as “did not induce”, the “increase in p53 protein” value (p53) is listed as 2 fold and the “fold more resistant than the MES-SA parent cell line” value (Dx5 cells) is listed as 100 fold. The “increase in the Mdm2 mRNA and protein” value (Mdm2; MCF-7 cells, doxorubicin 100 nM) was 1.5-2 fold.
